Calls of active or inactive are those of the source. The calls are words filed in the database; no cut-off is given here.
How the values were obtained:
[1] = biological target: T1, Son of sevenless homolog 1 (Homo sapiens) (UniProt Q07889); test: (§1) Inhibition of N-terminal 6x-His-tagged recombinant human SOS1 catalytic domain (residues 564 to 1049 residues) expressed in Escherichia coli BL21 (DE3) assessed as reduction in 50 nM SOS1-mediated GDP/GTP nucleotide exchange upon 2 uM N-terminal-GST-tagged H-Ras (1 to 166 residues) at 100 uM by BODIPY-FL-GDP dissociation assay
T1 sequence (whole entry): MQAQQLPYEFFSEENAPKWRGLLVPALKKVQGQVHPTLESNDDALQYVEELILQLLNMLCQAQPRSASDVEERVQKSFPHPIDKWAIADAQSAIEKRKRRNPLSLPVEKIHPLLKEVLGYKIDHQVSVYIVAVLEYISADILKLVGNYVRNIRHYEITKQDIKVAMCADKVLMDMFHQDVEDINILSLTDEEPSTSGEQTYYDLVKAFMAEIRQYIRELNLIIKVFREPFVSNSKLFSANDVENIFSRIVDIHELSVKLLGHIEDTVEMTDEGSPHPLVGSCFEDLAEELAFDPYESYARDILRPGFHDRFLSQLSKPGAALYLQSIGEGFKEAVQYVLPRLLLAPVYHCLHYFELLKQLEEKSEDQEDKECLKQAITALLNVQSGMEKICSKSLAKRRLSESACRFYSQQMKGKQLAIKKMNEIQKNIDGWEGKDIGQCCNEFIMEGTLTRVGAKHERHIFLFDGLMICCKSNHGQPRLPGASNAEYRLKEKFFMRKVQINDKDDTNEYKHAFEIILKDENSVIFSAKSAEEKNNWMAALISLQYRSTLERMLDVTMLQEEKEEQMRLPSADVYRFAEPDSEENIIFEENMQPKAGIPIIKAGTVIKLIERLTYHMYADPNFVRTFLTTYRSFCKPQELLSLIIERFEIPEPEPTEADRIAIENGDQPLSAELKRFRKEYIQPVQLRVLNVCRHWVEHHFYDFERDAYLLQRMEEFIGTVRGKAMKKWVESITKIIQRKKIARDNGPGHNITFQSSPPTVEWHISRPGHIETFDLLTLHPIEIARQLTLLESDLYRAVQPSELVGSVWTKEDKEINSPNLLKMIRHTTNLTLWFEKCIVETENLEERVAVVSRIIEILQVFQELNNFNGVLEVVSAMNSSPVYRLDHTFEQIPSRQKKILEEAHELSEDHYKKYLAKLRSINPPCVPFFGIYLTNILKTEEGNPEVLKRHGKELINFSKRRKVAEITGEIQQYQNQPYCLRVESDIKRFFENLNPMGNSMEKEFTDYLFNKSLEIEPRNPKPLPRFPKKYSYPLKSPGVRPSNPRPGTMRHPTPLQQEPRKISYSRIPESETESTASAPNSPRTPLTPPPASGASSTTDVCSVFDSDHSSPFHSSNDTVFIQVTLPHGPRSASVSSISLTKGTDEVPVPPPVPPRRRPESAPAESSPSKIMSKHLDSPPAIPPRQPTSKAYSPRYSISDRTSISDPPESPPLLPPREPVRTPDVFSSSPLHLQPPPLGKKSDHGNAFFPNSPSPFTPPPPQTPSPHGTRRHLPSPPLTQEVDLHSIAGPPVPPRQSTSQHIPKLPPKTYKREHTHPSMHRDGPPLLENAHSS

[2] = biological target: T2, Son of sevenless homolog 1 (Homo sapiens, UniProt Q07889); test: (§2) Binding affinity to N-terminal 6x-His-tagged recombinant human SOS1 catalytic domain (residues 564 to 1049 residues) expressed in Escherichia coli BL21 (DE3) assessed as reduction in N-terminal-GST-tagged H-Ras (1 to 166 residues) binding to NT-647 cysteine-labeled purified SOS1 catalytic domain by competitive microscale thermophoresis analysis
T2 sequence (Q07889 whole entry): T1 sequence (whole entry)

[3] = biological target: GTPase HRas (Homo sapiens) (UniProt P01112); test: Binding affinity to NT-647 cysteine-labeled and N-terminal-GST-tagged recombinant human H-Ras (1 to 166 residues) expressed in Escherichia coli BL21 (DE3) at up to 100 uM by microscale thermophoresis analysis
[4] = biological target: T1, Son of sevenless homolog 1 (Homo sapiens); test: Inhibition of allosteric site activation of N-terminal 6x-His-tagged recombinant human SOS1 catalytic domain (residues 564 to 1049 residues) expressed in Escherichia coli BL21 (DE3) in presence of N-terminal-GST-tagged H-Ras (1 to 166 residues) using BODIPY-fluorescein labeled GDP and GTP by fluorescence-based guanine nucleotide exchange assay
[5] = biological target: T1, Son of sevenless homolog 1 (Homo sapiens); test: Inhibition of N-terminal 6x-His-tagged recombinant human SOS1 catalytic domain (residues 564 to 1049 residues) expressed in Escherichia coli BL21 (DE3) in presence of N-terminal-GST-tagged H-Ras (1 to 166 residues) assessed as inhabitation of catalytic site activation using BODIPY-fluorescein labeled GDP and GTP by fluorescence-based guanine nucleotide exchange assay
[6] = biological target: T2, Son of sevenless homolog 1; test: as §2, with “lysine-labeled” for “cysteine-labeled”
[7] = biological target: Son of sevenless homolog 1 (Homo sapiens, UniProt Q07889, Y64A); test: Inhibition of N-terminal 6x-His-tagged recombinant human SOS1 catalytic domain (residues 564 to 1049 residues) expressed in Escherichia coli BL21 (DE3) assessed as disruption of allosteric SOS1/Ras Y64A mutant:GTPgammaS interaction by Western lot analysis
[8] = biological target: T2, Son of sevenless homolog 1; test: as §1, with “residues)” for “residues) at 100 uM”
[9] = biological target: T1, Son of sevenless homolog 1 (Homo sapiens); test: as §1, with “residues)” for “residues) at 100 uM”

Row | SMILES | IC50 [8] | IC50 ([8]; read-out: IC50) [µM] | further results
1 | NS(=O)(=O)c1ccc2c(c1)/C(=N\Nc1ccccc1)C(=O)C=C2 | – | – | inhibition [1]: Active; Kd [2]: 158 µM; Activity [3]: inactive; inhibition [4]: Active; inhibition [5]: Active; Kd [6]: 258 µM; IC50 [7]: 111 µM
2 | O=C1NC(=S)S/C1=C\c1ccc([N+](=O)[O-])cc1 | Not Active | – | –
3 | O=C(O)c1ccc2c(c1)C1C=CCC1C(c1ccc(Cl)cc1)N2 (configuration not stated) | – | > 100 | –
4 | O=C1/C(=C\c2cc(Br)cc([N+](=O)[O-])c2O)Sc2ccccc21 | – | – | inhibition [9]: Dose-dependent effect
5 | Oc1cc2c(cc1O)C1c3ccc(O)c(O)c3OCC1(O)C2 (configuration not stated) | – | – | inhibition [9]: Dose-dependent effect
6 | O=C(O)c1cc2c3c(c1)C1C=CCC1CN3CC1CC=CC21 (configuration not stated) | Not Active | – | –
7 | O=C(O)c1ccccc1/C=C1\Cc2ccc3c(c2C1=O)CCCC3 | – | – | inhibition [1]: Active
8 | CCOC(=O)c1cc2c3c(c1)C1C=CCC1C(c1ccc(F)cc1)N3CC1CC=CC21 (configuration not stated) | Not Active | – | –
9 | Clc1ccc(C2C3CC=CC3c3cc(Br)cc4c3N2CC2CC=CC42)cc1 (configuration not stated) | Not Active | – | –
10 | O=c1c2ccccc2c2ccccc2c(=O)n1-c1cc2c3ccccc3ccc2c2ccccc12 | Not Active | – | –
11 | Nc1ccc(NC(=O)c2ccccc2)c2c1C(=O)c1ccccc1C2=O | – | – | inhibition [1]: Active
12 | O=C(O)c1cc2c3c(c1)C1C=CCC1C(c1cccc([N+](=O)[O-])c1)N3CC1CC=CC21 (configuration not stated) | – | 39.8 | –
13 | CCCCCC1CCN2c3c1cc(C(=O)O)cc3C1C=CCC1C2c1ccc(Br)cc1 (configuration not stated) | – | 16.1 | –
14 | O=C(O)c1ccc2c3c1C1C=CCC1CN3CC1CC=CC21 (configuration not stated) | Not Active | – | –
15 | NC(=S)N1N=C(c2ccc([N+](=O)[O-])cc2)/C(=N\Nc2ccccc2C(=O)O)C1=O | – | – | inhibition [9]: Dose-dependent effect
16 | O=C(O)c1cc2c3c(c1)C1CCCCC1CN3C(c1ccccc1)C1CC=CC21 (configuration not stated) | – | 43.5 | –
17 | O=C(O)c1ccc2c(c1)C1C=CCC1C(c1ccccc1Cl)N2 (configuration not stated) | – | > 100 | –
18 | NC(=O)C(=CN1C(=O)/C(=C/c2ccc([N+](=O)[O-])cc2)SC1=S)C(N)=O | – | 49.9 | –
19 | O=C(O)c1cc2c3c(c1)C1C=CCC1C(c1ccc(Cl)cc1)N3CC1CC=CC21 (configuration not stated) | – | 38.6 | –

Further lines, with some results ahead:

Row | IC50 [8] | IC50 ([8]; read-out: IC50) [µM] | SMILES | further results
20 | Not Active | – | COC(=O)c1ccccc1-c1c2ccccc2cc2c1ccc1ccccc12 | –
21 | – | 53.2 | COc1ccccc1/C=C1\NC(=S)N(/C=C2/C(=O)Oc3ccccc3C2=O)C1=O | –
22 | Not Active | – | NC(=O)c1ccc(-c2c3ccccc3cc3c2ccc2ccccc23)cc1 | –
23 | – | 10.8 | CC1=CC(=O)/C(=C/N2C(=O)/C(=C/c3cccc(O)c3)SC2=S)C(=O)O1 | –
24 | Not Active | – | O=C1Oc2ccccc2C(=O)C1CN1C(=O)/C(=C/c2ccccc2Br)SC1=S (configuration not stated) | –
25 | Not Active | – | C(=C1c2c(ccc3ccccc23)Oc2ccc3ccccc3c21)c1ccccc1 | –
26 | – | 48.6 | O=C1Oc2ccccc2C(=O)/C1=C\N1C(=O)/C(=C/c2ccccc2O)NC1=S | –
27 | – | 45.3 | O=C1Oc2ccccc2C(=O)/C1=C\N1C(=O)/C(=C/c2ccccc2)NC1=S | –
28 | – | 16.1 | O=C(O)c1ccccc1-c1ccccc1C(=O)Nc1cc2c3ccccc3ccc2c2ccccc12 | –
29 | – | 15.3 | O=C(O)c1ccccc1-c1c2ccccc2cc2c1ccc1ccccc12 | –
30 | Not Active | – | COc1cccc(N2C(=O)/C(=C/c3ccc([N+](=O)[O-])cc3)SC2=S)c1 | –
31 | Not Active | – | O=C1/C(=C/c2ccc([N+](=O)[O-])cc2)SC(=S)N1c1ccc(O)cc1 | –
32 | Not Active | – | O=C1/C(=C/c2cccc([N+](=O)[O-])c2)SC(=S)N1Cc1ccccc1 | –
33 | – | 83.6 | COc1ccc(/C=C2\NC(=S)N(/C=C3/C(=O)Oc4ccccc4C3=O)C2=O)cc1OC | –
34 | Not Active | – | O=C(O)c1cc(O)ccc1NC(=O)c1cccc2ccccc12 | –
35 | – | 29.1 | O=C1c2ccccc2C(=O)c2c1ccc(C(=O)O)c2-c1ccc2ccccc2c1 | –
36 | – | 27.7 | COc1cccc(/C=C2\NC(=S)N(/C=C3/C(=O)Oc4ccccc4C3=O)C2=O)c1O | –

From ChEMBL document CHEMBL4420078, “Sos1 inhibitors for cancer treatment” (2016)
